US7816330B2, “Substituted benzimidazole-, benztriazole-, and benzimidazolone-O-glucosides” (Janssen Pharmaceutica NV, priority 2003, dated 2010)

Key:
human SGLT2 = target: T1, human SGLT2 (Homo sapiens, UniProt P31639); assay: Cell-based assay for sodium-dependent glucose transport (14C-AMG uptake), CHOK-SGLT2; conditions: CHO-K1 cells stably expressing human SGLT2, Na-dependent 14C-AMG uptake; for inhibition at 10 µM: read-out: CHOK-SGLT2 % Inh. @10 μM
T1 construct: expressed in transfected cells; pcDNA vector)
T1 sequence (P31639 1-672): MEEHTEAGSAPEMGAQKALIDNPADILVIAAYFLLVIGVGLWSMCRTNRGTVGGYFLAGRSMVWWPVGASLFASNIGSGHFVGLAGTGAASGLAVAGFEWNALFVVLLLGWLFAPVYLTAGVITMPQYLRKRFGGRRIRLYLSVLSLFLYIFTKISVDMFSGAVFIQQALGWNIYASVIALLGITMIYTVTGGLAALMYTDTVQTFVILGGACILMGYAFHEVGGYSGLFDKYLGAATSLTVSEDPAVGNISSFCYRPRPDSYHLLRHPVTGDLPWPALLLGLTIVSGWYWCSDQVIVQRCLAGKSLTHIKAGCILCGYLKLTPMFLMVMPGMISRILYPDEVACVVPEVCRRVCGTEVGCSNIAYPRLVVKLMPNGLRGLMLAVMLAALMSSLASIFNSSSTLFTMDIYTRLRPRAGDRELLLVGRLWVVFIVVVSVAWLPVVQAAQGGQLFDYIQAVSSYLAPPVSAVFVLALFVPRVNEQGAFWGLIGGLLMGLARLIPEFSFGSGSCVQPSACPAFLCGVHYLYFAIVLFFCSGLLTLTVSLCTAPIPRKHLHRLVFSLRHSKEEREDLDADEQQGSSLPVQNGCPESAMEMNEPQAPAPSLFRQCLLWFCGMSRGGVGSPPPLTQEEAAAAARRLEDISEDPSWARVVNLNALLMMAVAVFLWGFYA
Method: (§1) Cloning of the human SGLT1 and human SGLT2 cDNAs and construction of the mammalian expression vector: The human SGLT1 cDNA (Genbank M24847) was cloned from human small intestine. Human SGLT2 cDNA (Genbank M95549) was cloned from human kidney. Both full cDNAs were subcloned into pcDNA and sequenced to verify the integrity of the construct.
(§2) Generation of CHO-K1 cells stably expressing human SGLT1 or human SGLT2: Transfection of CHO-K1 cells was performed using DMRIE-C reagent (Life Technologies, Gaithersburg, Md.). Transfectants were then selected in the presence of the antibiotic G418 (Gibco-BRL, Grand Island, N.Y.) at 400 μg/ml. Individual clones were then characterized using the functional assay described below.
(§3) Cell-based assay for sodium-dependent glucose transport: Cell lines stably expressing human SGLT1 or SGLT2 were then used for functional analysis of Na+-dependent glucose uptake. Briefly, cells were plated at a density of 65,000 cells per well in a 96-well plate and allowed to grow for 48 hours. Cells were subsequently washed one time with Assay Buffer (50 mM HEPES pH 7.4, 20 mM Tris, 5 mM KCl, 1 mM MgCl2, 1 mM CaCl2 and 137 mM NaCl) and treated with compound in the absence or presence of NaCl for 15 minutes. Cells were then labeled with ^14C-α-methylglucopyranoside (AMG, Sigma, St. Louis, Mo.), a non-metabolizable glucose analog specific for sodium-dependent glucose transporters as previously described (Peng, H. and Lever J. E. Post-transcriptional regulation of Na^+/glucose cotransporter (SGLT1) gene expression in LLC-PK1 cells. J Biol Chem 1995; 270:20536-20542.). After 2 hours the labelled cells were washed three times with ice-cold PBS. After aspiration, cells were solubilized using Microscint 20 (Packard, Meriden, Conn.) and Na-dependent ^14C-AMG uptake was quantified by measuring radioactivity. Plates were counted in a TopCount (Packard, Meriden, Conn.). Results are reported as the % inhibition or IC50 value from a representative experiment. Variability for the functional assay was typically within 20%.

human SGLT1 = target: T2, human SGLT1 (Homo sapiens, UniProt P13866); assay: Cell-based assay for sodium-dependent glucose transport (14C-AMG uptake), CHOK-SGLT1; conditions: CHO-K1 cells stably expressing human SGLT1, Na-dependent 14C-AMG uptake; for inhibition at 10 µM: read-out: CHOK-SGLT1 % Inh. @10 μM
T2 construct: expressed in transfected cells; pcDNA vector)
T2 sequence (P13866 1-664): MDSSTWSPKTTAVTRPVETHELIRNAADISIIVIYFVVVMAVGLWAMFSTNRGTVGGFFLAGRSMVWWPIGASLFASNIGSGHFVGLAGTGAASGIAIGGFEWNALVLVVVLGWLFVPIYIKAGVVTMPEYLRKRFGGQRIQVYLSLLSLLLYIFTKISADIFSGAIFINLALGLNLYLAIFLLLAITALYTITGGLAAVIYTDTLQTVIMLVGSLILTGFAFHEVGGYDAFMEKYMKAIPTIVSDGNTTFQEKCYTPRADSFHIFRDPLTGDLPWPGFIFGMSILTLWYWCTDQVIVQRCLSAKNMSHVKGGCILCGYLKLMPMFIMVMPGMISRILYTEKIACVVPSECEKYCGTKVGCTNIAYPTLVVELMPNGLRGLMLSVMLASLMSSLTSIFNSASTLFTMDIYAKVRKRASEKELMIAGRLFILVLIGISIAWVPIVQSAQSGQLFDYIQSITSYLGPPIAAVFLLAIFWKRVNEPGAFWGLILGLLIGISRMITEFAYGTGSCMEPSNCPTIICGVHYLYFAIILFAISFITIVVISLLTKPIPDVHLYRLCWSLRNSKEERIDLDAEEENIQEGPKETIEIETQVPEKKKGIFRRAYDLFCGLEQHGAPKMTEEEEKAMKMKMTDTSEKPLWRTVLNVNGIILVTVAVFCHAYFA
Method: as §1, §2, §3

inhibition at 10 µM (human SGLT2) [%]	inhibition at 10 µM (human SGLT1) [%]	IC50 (human SGLT2) [µM]	IC50 (human SGLT1) [µM]	SMILES
31	–	–	–	O=c1[nH]c2cccc(OC3OC(CO)C(O)C(O)C3O)c2n1CCc1ccc2ccccc2c1 [Example 1, 2-[3-(2-Naphthalen-2-yl-ethyl)-1,3-dihydro-benzoimidazol-2-one-4-yloxy]-β-D-glucopyranoside]
–	55	0.334	–	OCC1OC(Oc2cccc3ncn(CCc4ccc5ccccc5c4)c23)C(O)C(O)C1O [Example 2, 2-[3-(2-naphthalen-2-yl-ethyl)-3H-benzoimidazol-4-yloxy]-β-D-glucopyranoside]
–	1	1.02	–	CCc1ccc(Cn2c(=O)[nH]c3cccc(OC4OC(CO)C(O)C(O)C4O)c32)cc1 [Example 3, 2[3-(4-Ethyl-benzyl)-1,3-dihydro-benzoimidazol-2-one-4-yloxy]-β-D-glucopyranoside]
–	–	0.016	1.12	CCc1ccc(Cn2cnc3cccc(OC4OC(CO)C(O)C(O)C4O)c32)cc1 [Example 4, 2-[3-(4-Ethyl-benzyl)-3H-benzoimidazol-4-yloxy]-β-D-glucopyranoside]
–	61	0.365	–	COc1ccc(CCn2cnc3cccc(OC4OC(CO)C(O)C(O)C4O)c32)cc1 [Example 5, 2-{3-[2-(4-Methoxyphenyl)-ethyl]-3H-benzoimidazol-4-yloxy}-β-D-glucopyranoside]
18	–	–	–	COc1ccc(CCn2c(=O)[nH]c3cccc(OC4OC(CO)C(O)C(O)C4O)c32)cc1 (stereo not drawn) [Example 6]
–	–	0.038	0.7	OCC1OC(Oc2cccc3ncn(CCc4ccc5c(c4)CCO5)c23)C(O)C(O)C1O (stereo not drawn) [Example 7, 2-{3-[2-(2,3-Dihydro-benzofuran-5-yl)-ethyl]-3H-benzoimidazol-4-yloxy}β-D glucopyranoside]
–	–	0.061	1.12	CCc1ccc(Cn2cnc3cc(C)cc(O[C@@H]4O[C@H](CO)[C@@H](O)[C@H](O)[C@H]4O)c32)cc1 [Example 8, 2-[3-(4-Ethyl-benzyl)-6-methyl-3H-benzoimidazol-4-yloxy]-β-D-glucopyranoside]
–	40	0.39	–	COc1ccc(CCn2nnc3cccc(OC4OC(CO)C(O)C(O)C4O)c32)cc1 [Example 9, 2-{3-[2-(4-methoxy-phenyl)-ethyl]-3H-benzotriazol-4-yloxy}-β-D-glucopyranoside]
–	–	0.008	0.59	CCc1ccc(Cn2nnc3cccc(OC4OC(CO)C(O)C(O)C4O)c32)cc1 [Example 10, 2-[3-(4-Ethyl-benzyl)-3H-benzotriazol-4-yloxy]-β-D-glucopyranoside]
